# Data from ChEMBL document CHEMBL4308841, “Synthesis, in vitro antiproliferative activity, and kinase inhibitory effects of pyrazole-containing diarylureas and diarylamides” (Eur J Med Chem, 2018).
# pIC50: −log10 of the molar value.
# How the values were obtained:
# CCRF-CEM = assay: Growth inhibition of human CCRF-CEM cells assessed as cell growth at 1 uM incubated for 48 hrs by sulforhodamine B assay relative to control; format: functional; conditions: read-out: Activity
# A549 = assay: Growth inhibition of human A549/ATCC cells assessed as cell growth at 0.1 uM incubated for 48 hrs by sulforhodamine B assay relative to control; format: functional; conditions: A549, 48 h, read-out: Activity
# SF-539 [1] = assay: Growth inhibition of human SF539 cells assessed as cell growth at 0.01 uM incubated for 48 hrs by sulforhodamine B assay relative to control; format: functional; conditions: SF-539, 48 h, read-out: Activity
# KM12 [2] = assay: Growth inhibition of human KM12 cells assessed as cell growth at 0.1 uM incubated for 48 hrs by sulforhodamine B assay relative to control; format: functional; conditions: KM12, 48 h, read-out: Activity
# M14 = assay: Growth inhibition of human M14 cells assessed as cell growth at 100 uM incubated for 48 hrs by sulforhodamine B assay relative to control; format: functional; conditions: M14, 48 h, read-out: Activity
# MDA-MB-468 = assay: Growth inhibition of human MDA-MB-468 cells assessed as cell growth at 1 uM incubated for 48 hrs by sulforhodamine B assay relative to control; format: functional; conditions: MDA-MB-468, 48 h, read-out: Activity
# K562 = assay: Growth inhibition of human K562 cells incubated for 48 hrs by sulforhodamine B assay; format: functional, cell-based; conditions: K562, 48 h
# BT-549 [3] = assay: Growth inhibition of human BT549 cells incubated for 48 hrs by sulforhodamine B assay; format: functional, cell-based; conditions: BT-549, 48 h
# OVCAR-8 = assay: Growth inhibition of human OVCAR8 cells incubated for 48 hrs by sulforhodamine B assay; format: functional, cell-based; conditions: OVCAR-8, 48 h
# LOX IMVI = assay: Growth inhibition of human LOXIMVI cells assessed as cell growth at 0.01 uM incubated for 48 hrs by sulforhodamine B assay relative to control; format: functional; conditions: read-out: Activity
# MOLT-4 = assay: Growth inhibition of human MOLT4 cells assessed as cell growth at 0.1 uM incubated for 48 hrs by sulforhodamine B assay relative to control; format: functional; conditions: MOLT-4, 48 h, read-out: Activity
# HOP-62 = assay: Growth inhibition of human HOP62 cells assessed as cell growth at 0.01 uM incubated for 48 hrs by sulforhodamine B assay relative to control; format: functional; conditions: HOP-62, 48 h, read-out: Activity
# SK-MEL-2 = assay: Growth inhibition of human SK-MEL-2 cells assessed as cell growth at 100 uM incubated for 48 hrs by sulforhodamine B assay relative to control; format: functional; conditions: SK-MEL-2, 48 h, read-out: Activity
# RXF 393 = assay: Growth inhibition of human RXF393 cells assessed as cell growth at 0.1 uM incubated for 48 hrs by sulforhodamine B assay relative to control; format: functional; conditions: RXF 393, 48 h, read-out: Activity
# DU-145 = assay: Growth inhibition of human DU145 cells assessed as cell growth at 0.01 uM incubated for 48 hrs by sulforhodamine B assay relative to control; format: functional; conditions: DU-145, 48 h, read-out: Activity
# NCI-H23 = assay: Growth inhibition of human NCI-H23 cells assessed as cell growth at 0.1 uM incubated for 48 hrs by sulforhodamine B assay relative to control; format: functional; conditions: NCI-H23, 48 h, read-out: Activity
# SW-620 = assay: Growth inhibition of human SW620 cells assessed as cell growth at 0.1 uM incubated for 48 hrs by sulforhodamine B assay relative to control; format: functional; conditions: SW-620, 48 h, read-out: Activity
# BT-549 [4] = assay: Growth inhibition of human BT549 cells assessed as cell growth at 1 uM incubated for 48 hrs by sulforhodamine B assay relative to control; format: functional; conditions: BT-549, 48 h, read-out: Activity
# MCF7 = assay: Growth inhibition of human MCF7 cells assessed as cell growth at 0.1 uM incubated for 48 hrs by sulforhodamine B assay relative to control; format: functional; conditions: MCF7, 48 h, read-out: Activity
# UO-31 = assay: Growth inhibition of human UO31 cells incubated for 48 hrs by sulforhodamine B assay; format: functional, cell-based; conditions: UO-31, 48 h
# UACC-257 = assay: Growth inhibition of human UACC257 cells incubated for 48 hrs by sulforhodamine B assay; format: functional, cell-based; conditions: UACC-257, 48 h
# KM12 [5] = assay: Growth inhibition of human KM12 cells assessed as cell growth at 0.01 uM incubated for 48 hrs by sulforhodamine B assay relative to control; format: functional; conditions: KM12, 48 h, read-out: Activity
# MDA-MB-231 = assay: Growth inhibition of human MDA-MB-231 cells incubated for 48 hrs by sulforhodamine B assay; format: functional, cell-based; conditions: MDA-MB-231, 48 h
# HCT-116 = assay: Growth inhibition of human HCT116 cells incubated for 48 hrs by sulforhodamine B assay; format: functional, cell-based; conditions: HCT-116, 48 h
# COLO 205 = assay: Growth inhibition of human COLO205 cells assessed as cell growth at 0.01 uM incubated for 48 hrs by sulforhodamine B assay relative to control; format: functional; conditions: COLO 205, 48 h, read-out: Activity
# SF-539 [6] = assay: Growth inhibition of human SF539 cells assessed as cell growth at 1 uM incubated for 48 hrs by sulforhodamine B assay relative to control; format: functional; conditions: SF-539, 48 h, read-out: Activity
# OVCAR-3 = assay: Growth inhibition of human OVCAR3 cells assessed as cell growth at 0.01 uM incubated for 48 hrs by sulforhodamine B assay relative to control; format: functional; conditions: OVCAR-3, 48 h, read-out: Activity
# HCC 2998 = assay: Growth inhibition of human HCC2998 cells assessed as cell growth at 100 uM incubated for 48 hrs by sulforhodamine B assay relative to control; format: functional; conditions: HCC 2998, 48 h, read-out: Activity
# [7] = read-out: LC50 (the source's name)
# [8] = read-out: pLC50 (the source's name) (converted)
structure (smiles),measurement,setting,value
O=C(Nc1cccc(-n2cc(-c3ccncc3)c(-c3cc(O)cc(Cl)c3)n2)c1)c1ccc(N2CCOCC2)c(C(F)(F)F)c1,growth at 1 µM,CCRF-CEM,34%
same,growth at 0.1 µM,A549,97%
same,growth at 0.01 µM,SF-539 [1],94%
same,growth at 0.1 µM,KM12 [2],105%
same,growth at 100 µM,M14,-54%
same,growth at 1 µM,MDA-MB-468,75%
same,GI50,K562; read-out: GI50,554 nM
same,LC50,K562; read-out: LC50,> 100 µM
same,TGI,K562; read-out: TGI,40.8 µM
same,GI50,K562; read-out: pGI50 (converted),562 nM
same,LC50,K562; read-out: pLC50 (converted),> 100 µM
same,TGI,K562; read-out: pTGI (converted),4.9 µM
same,GI50,BT-549 [3]; read-out: GI50,4.21 µM
same,CC50,BT-549 [3]; [7],> 100 µM
same,TGI,BT-549 [3]; read-out: TGI,> 100 µM
same,GI50,BT-549 [3]; read-out: pGI50 (converted),4.17 µM
same,CC50,BT-549 [3]; [8],> 100 µM
same,TGI,BT-549 [3]; read-out: pTGI (converted),> 100 µM
same,GI50,OVCAR-8; read-out: GI50,15400 nM
same,CC50,OVCAR-8; [7],> 100 µM
same,TGI,OVCAR-8; read-out: TGI,> 100 µM
same,GI50,OVCAR-8; read-out: pGI50 (converted),1620 nM
same,CC50,OVCAR-8; [8],> 100 µM
same,TGI,OVCAR-8; read-out: pTGI (converted),> 100 µM
same,growth at 0.01 µM,LOX IMVI,100%
same,growth at 0.1 µM,MOLT-4,97%
same,growth at 0.01 µM,HOP-62,100%
same,growth at 100 µM,SK-MEL-2,-30%
same,growth at 0.1 µM,RXF 393,85%
same,growth at 0.01 µM,DU-145,100%
same,growth at 0.1 µM,NCI-H23,104%
same,growth at 0.1 µM,SW-620,105%
same,growth at 1 µM,BT-549 [4],75%
same,growth at 0.1 µM,MCF7,87%
same,pIC50,UO-31,5.85
same,GI50,UO-31; read-out: GI50,1410 nM
same,CC50,UO-31; [7],> 100 µM
same,TGI,UO-31; read-out: TGI,15.5 µM
same,GI50,UO-31; read-out: pGI50 (converted),1120 nM
same,CC50,UO-31; [8],> 100 µM
same,TGI,UO-31; read-out: pTGI (converted),15.5 µM
same,GI50,UACC-257; read-out: GI50,2360 nM
same,CC50,UACC-257; [7],> 100 µM
same,TGI,UACC-257; read-out: TGI,84 µM
same,GI50,UACC-257; read-out: pGI50 (converted),2340 nM
same,CC50,UACC-257; [8],> 100 µM
same,TGI,UACC-257; read-out: pTGI (converted),8.51 µM
same,growth at 0.01 µM,KM12 [5],105%
same,GI50,MDA-MB-231; read-out: GI50,327 nM
same,CC50,MDA-MB-231; [7],27 µM
same,TGI,MDA-MB-231; read-out: TGI,16.6 µM
same,GI50,MDA-MB-231; read-out: pGI50 (converted),324 nM
same,CC50,MDA-MB-231; [8],26.9 µM
same,TGI,MDA-MB-231; read-out: pTGI (converted),1.66 µM
same,pIC50,HCT-116,5.71
same,GI50,HCT-116; read-out: GI50,1960 nM
same,CC50,HCT-116; [7],> 100 µM
same,TGI,HCT-116; read-out: TGI,> 100 µM
same,GI50,HCT-116; read-out: pGI50 (converted),1950 nM
same,CC50,HCT-116; [8],> 100 µM
same,TGI,HCT-116; read-out: pTGI (converted),> 100 µM
same,growth at 0.01 µM,COLO 205,106%
same,growth at 1 µM,SF-539 [6],58%
same,growth at 0.01 µM,OVCAR-3,111%
same,growth at 100 µM,HCC 2998,-28%
O=C(Nc1cccc(-n2cc(-c3ccncc3)c(-c3cc(O)cc(Cl)c3)n2)c1)Nc1ccc(Cl)c(C(F)(F)F)c1,growth at 1 µM,CCRF-CEM,92%
same,growth at 0.1 µM,A549,100%
same,growth at 0.01 µM,SF-539 [1],104%
same,growth at 0.1 µM,KM12 [2],92%
same,growth at 100 µM,M14,-57%
same,growth at 1 µM,MDA-MB-468,75%
same,GI50,K562; read-out: GI50,2590 nM
same,LC50,K562; read-out: LC50,> 100 µM
same,TGI,K562; read-out: TGI,11 µM
same,GI50,K562; read-out: pGI50 (converted),2570 nM
same,LC50,K562; read-out: pLC50 (converted),> 100 µM
same,TGI,K562; read-out: pTGI (converted),12 µM
same,GI50,BT-549 [3]; read-out: GI50,2.25 µM
same,CC50,BT-549 [3]; [7],23.7 µM
same,TGI,BT-549 [3]; read-out: TGI,51.5 µM
same,GI50,BT-549 [3]; read-out: pGI50 (converted),2.82 µM
same,CC50,BT-549 [3]; [8],23.4 µM
same,TGI,BT-549 [3]; read-out: pTGI (converted),6.17 µM
same,GI50,OVCAR-8; read-out: GI50,2150 nM
same,CC50,OVCAR-8; [7],50.1 µM
same,TGI,OVCAR-8; read-out: TGI,55.5 µM
same,GI50,OVCAR-8; read-out: pGI50 (converted),2140 nM
same,CC50,OVCAR-8; [8],79.4 µM
same,TGI,OVCAR-8; read-out: pTGI (converted),5.62 µM
same,growth at 0.01 µM,LOX IMVI,90%
same,growth at 0.1 µM,MOLT-4,92%
same,growth at 0.01 µM,HOP-62,99%
same,growth at 100 µM,SK-MEL-2,-88%
same,growth at 0.1 µM,RXF 393,95%
same,growth at 0.01 µM,DU-145,103%
same,growth at 0.1 µM,NCI-H23,91%
same,growth at 0.1 µM,SW-620,98%
same,growth at 1 µM,BT-549 [4],90%
same,growth at 0.1 µM,MCF7,91%
same,pIC50,UO-31,5.68
same,GI50,UO-31; read-out: GI50,2100 nM
same,CC50,UO-31; [7],34.7 µM
same,TGI,UO-31; read-out: TGI,61.4 µM
same,GI50,UO-31; read-out: pGI50 (converted),2630 nM
same,CC50,UO-31; [8],34.7 µM
same,TGI,UO-31; read-out: pTGI (converted),6.17 µM
same,GI50,UACC-257; read-out: GI50,1990 nM
same,CC50,UACC-257; [7],19.2 µM
same,TGI,UACC-257; read-out: TGI,63.4 µM
same,GI50,UACC-257; read-out: pGI50 (converted),2000 nM
same,CC50,UACC-257; [8],19.1 µM
same,TGI,UACC-257; read-out: pTGI (converted),5.37 µM
same,growth at 0.01 µM,KM12 [5],91%
same,GI50,MDA-MB-231; read-out: GI50,1550 nM
same,CC50,MDA-MB-231; [7],> 100 µM
same,TGI,MDA-MB-231; read-out: TGI,50.6 µM
same,GI50,MDA-MB-231; read-out: pGI50 (converted),1860 nM
same,CC50,MDA-MB-231; [8],> 100 µM
same,TGI,MDA-MB-231; read-out: pTGI (converted),5.89 µM
same,pIC50,HCT-116,5.71
same,GI50,HCT-116; read-out: GI50,1960 nM
same,CC50,HCT-116; [7],10.7 µM
same,TGI,HCT-116; read-out: TGI,44.7 µM
same,GI50,HCT-116; read-out: pGI50 (converted),1950 nM
same,CC50,HCT-116; [8],10.7 µM
same,TGI,HCT-116; read-out: pTGI (converted),4.47 µM
same,growth at 0.01 µM,COLO 205,102%
same,growth at 1 µM,SF-539 [6],91%
same,growth at 0.01 µM,OVCAR-3,101%
same,growth at 100 µM,HCC 2998,-88%
